In patent publication US9241913B2, “Polysialic acid-based N-trimethyl chitosan gel nanoparticles for systemic drug delivery” (Syracuse University, priority 2011, dated 2016):

Tests used:
[1] = system: MH7A rheumatoid arthritis synovial fibroblast cell line; experiment: WST-8 cytotoxicity assay; type: cell-based; settings: MH7A cells, 24 hours incubation, WST-8 absorbance at 450 nm
Procedure: WST-8 assay (Cayman Chemical Company, Ann Arbor, Mich.) was conducted on the MH7A rheumatoid arthritis synovial fibroblast cell line, following the manufacturer's instructions, to assess the cytotoxicity of the PSA-TMC nanoparticles. NADH produced within the mitochondria reduces WST-8 tetrazolium salt to formazan dye, which can be quantified by absorbance measurements at 450 nm. Cells were seeded into 96-well cell culture plate (2×10^4 cells per well) and cultured for 24 hr at 37° C., 5% CO2. PSA-TMC (0.5:1) was added to yield a series of concentrations from 0.3125 to ˜20 mg/mL, and the cultures were incubated for an additional 24 hours. 10 μL of WST-8 solution were added to each well. After a 90 minute incubation period, absorbance was measured with a Synergy 2 multimode microplate reader (BioTek Instruments, Winooski, Vt.) at 450 nm. The cytotoxicities of TMC TPP and alone were also evaluated following the above procedure. Untreated MH7A synovial fibroblast cultures were used as controls. Relative absorbance versus concentration was plotted for each set of additives, and a four parameter logistic, constructed with Kaleidagraph software, was used to fit the data to determine the IC50 values. Each experiment was repeated independently at least two times.

rheumatoid arthritis = settings: cited from earlier work
[2] = orally administered, patients; cited from earlier work

Row | SMILES | IC50 [1] | reduction in the risk of early mortality (rheumatoid arthritis; RA patients treated with methotrexate) | reduction in deaths due to RA related cardiovascular disease (rheumatoid arthritis; individuals prescribed methotrexate) | patients who developed severe fibrosis or cirrhosis (rheumatoid arthritis; over 55 months of treatment, rheumatoid arthritis) | elimination half-lives [2]
1 | O=P(O)(O)OP(=O)(O)OP(=O)(O)O [TPP, sodium tripolyphosphate] | 220 ± 40 µg/mL |  |  |  | 
2 | CN(Cc1cnc2nc(N)nc(N)c2n1)c1ccc(C(=O)N[C@@H](CCC(=O)O)C(=O)O)cc1 [methotrexate, Methotrexate] |  | 60% | 70% | 3% | six to fifty-five
